The conditions of data set [1]: rat, in vivo, iv, 20 mg/kg.
Experimental: (U-^13C)Paracetamol was administered intravenously at 20 mg/kg (at 0 and 3 hrs) to 4 anaesthetised rats, urine was collected from canulated urethra and bile was collected from canulated bile duct (2 rats only) at 0-3 and 3-6 hours. Bile (3-6 hrs) was extracted with dichloromethane and then fractionated by RP-hplc (C18 Kromasil, 25×1 cm, 5 um) using gradient elution with formic acid in water and formic acid in methanol).
Several metabolites were collected. […] The isolated material was then dried and an aliquot re-analysed by RP hplc indicating a peak purity of 96.7%, monitored by on-line UV detection (at 254 nm) and gave the expected (M+H)+ ion at 240 mass units by on-line electrospray ionisation mass spectrometry (EI-MS).
Data set [2] is described as follows: benzoic acid metabolism study: iv administration to anaesthetised rats, urine collected. In kind it is in vivo, rat.

The results in this text go back to US8372654B2, “Method for investigating the fate of a test compound or the stateof a biological system by means of NMR of hyperpolarised NMR active nuclei” (GE Healthcare Limited, priority 2001, dated 2013).

As to (U-^13C)Paracetamol, the “metabolite identified in bile” value in data set [1] was “Paracetamol sulphate”. Turning to `O=[13C](O)c1ccccc1` [(^13C-carboxyl) Benzoic acid], the “major metabolite in urine” value in data set [2] (rat urine after iv 10 mg/Kg at 0 and 2 hrs, isolated by SPE and RP-hplc) is “(^13C-carboxy) hippuric acid”. As for (^13C-carboxyl) hippuric acid, in data set [2] (rat urine, 0-2 hr collection, after iv (13C-carboxyl) benzoic acid 10 mg/Kg), the “level measured in urine” value is listed as “approximately 5 mg/ml”.
